Data reported in patent US20170343551A1, “METHOD OF DIAGNOSING AND TREATING PROSTATE CANCER” (Board of Supervisors of Louisiana State University and …, priority 2016, published 2017).

Key:
Type in all cases: cell-based
SPDEF mRNA in PC3 cells = assay: SPDEF (PDEF) mRNA expression by RT-PCR in treated PC3 cells; conditions: FIG. 8A/8B
Description: (§1) FIGS. 8A-8C show SPDEF is subjected to DNA methylation regulation.
(§2) Both culture and socioeconomic status can affect epigenetic processes; and the epigenetic modification effects can extend not only throughout the life course, but also to generations followed. DNA methylation and histone modifications are two common epigenetic mechanisms that control the expression of affected genes. […] Concomitant with the increased levels of SPDEF, 5-aza treatments reduced the cell migration and invasion ability of PC3 cells. Additionally, the inventors have also examined the distribution of CpG islands in the proximal promoter region of SPDEF. […] Expected treatment levels include, for example, azacytidine 2.5 mg/kg and decitabine 2.5 mg/kg.

TMS1 in PC3 cells = assay: TMS1 expression (methylation-repressed positive control gene) in treated PC3 cells; conditions: known methylation-repressed gene as positive control, FIG. 8A
Description: as §1

PC3 cells [1] = assay: Cell migration ability of PC3 cells; conditions: FIG. 8C
Description: as §1, §2

PC3 cells [2] = assay: Invasion ability of PC3 cells

Compound	expression of SPDEF (PDEF) mRNA (SPDEF mRNA in PC3 cells)	expression of TMS1 (TMS1 in PC3 cells)	cell migration ability (PC3 cells [1])	invasion ability (PC3 cells [2])
Nc1ncn([C@H]2C[C@H](O)[C@@H](CO)O2)c(=O)n1 [5-Aza, 5-aza-2′-deoxycytidine]	induced	induced	reduced	reduced
CCCC(CCC)C(=O)O [VPA, valproic acid]	did not alter			
